Tested on: SKOV3 ovarian cells
Test: Cytotoxicity of ADCs against SKOV3 cell lines (viable cells by ATP content, CellTiter-Glo)
Format: cell-based
Conditions: SKOV3 ovarian cancer cells, 3 to 5 days incubation with ADC, % survival curve fit
Experimental: The cytotoxic activity of Trastuzumab ADCs of Formula (IV) was tested against SKOV3 ovarian cell lines
SKOV3 ovarian cells were incubated with the effectors for a period corresponding to 2 to 3 times their estimated doubling time and the amount of viable cells was determine by measuring ATP content in the wells. […] All ADCs were diluted in DPBS to 6× the highest concentration tested, followed by 10 3-fold serial dilutions in DPBS for a total of 11 concentration points. Each point was added to triplicate wells. DPBS was added in wells to measure the maximum growth. Cells were diluted at their appropriate seeding density (ranging from 150 to 1000 cells per well) in complete media supplemented with glutamine 2 mM, serum and antibiotic cocktail. […] Total ATP was measured using CellTiter-Glo™ reagent from Promega as recommended by the supplier. […] Signal output was measured on a luminescence plate reader (Envision™, Perkin Elmer) set at an integration time of 0.1 sec. […]
Each concentration point (S) was normalized to the negative control wells (NC) and expressed as % survival (NC-S/NC×100). Potency (IC50) and efficacy were calculated from a non-linear curve fit of the points versus log of the concentrations without constrain on the slope. Refined data were analysed using Prism™ software.

Synagis-SMCC-DM1: negative control ADC was tested, and the IC50 was 4.01 nM.

Reference: patent US20220267281A1, “UNSATURATED HETEROCYCLOALKYL AND HETEROAROMATIC ACYL HYDRAZONE LINKERS, METHODS AND USES THEREOF” (priority 2019, published 2022)
